From PubChem BioAssay AID330 (DTP/NCI, 2004)
“And” between values parts separate entries of the source, which are not always exact repeats. Equal values may be shown once. Inconclusive results and toxic doses are left out. The calls were made as follows: active = survival T/C of 150% or more; inactive = T/C below 125% in these data.

Test system: P388 leukemia ip, CD2F1 mice, survival T/C
Assay: NCI In Vivo Anticancer Drug Screen. Data for tumor model P388 Leukemia (intraperitoneal) in CD2F1 (CDF1) mice
Details: endpoint: median survival time, higher = longer survival
Summary of the method: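 Mice carrying the transplanted tumor received test compound or vehicle. Survival was recorded in each group, and the value is the treated-group measurement divided by that of the vehicle-treated control group.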

[1] = dose: 50.0 mg/kg/injection, schedule: Q01DX009 (ip), vehicle: saline with Tween-80
[2] = dose: 50.0 mg/kg/injection, schedule: Q01DX009 (ip), vehicle: saline
[3] = dose: 100.0 mg/kg/injection, schedule: Q01DX009 (ip), vehicle: saline with Tween-80
[4] = dose: 200.0 mg/kg/injection, schedule: Q01DX009 (ip), vehicle: saline with Tween-80
[5] = dose: 50.0 mg/kg/injection, schedule: Q01DX005 (ip), vehicle: saline with Tween-80
[6] = dose: 100.0 mg/kg/injection, schedule: Q01DX005 (ip), vehicle: saline with Tween-80
[7] = dose: 200.0 mg/kg/injection, schedule: Q01DX005 (ip), vehicle: saline with Tween-80
[8] = dose: 60.0 mg/kg/injection, schedule: Q01DX005 (ip), vehicle: saline
[9] = dose: 120.0 mg/kg/injection, schedule: Q01DX005 (ip), vehicle: saline
[10] = dose: 240.0 mg/kg/injection, schedule: Q01DX005 (ip), vehicle: saline
[11] = dose: 25.0 mg/kg/injection, schedule: Q01DX009 (ip), vehicle: saline with Tween-80
[12] = dose: 100.0 mg/kg/injection, schedule: Q01DX009 (ip), vehicle: saline
[13] = dose: 200.0 mg/kg/injection, schedule: Q01DX009 (ip), vehicle: saline
[14] = dose: 50.0 mg/kg/injection, schedule: Q01DX009 (ip), vehicle: Klucel (hydroxypropylcellulose) (HPC)
[15] = dose: 100.0 mg/kg/injection, schedule: Q01DX009 (ip), vehicle: Klucel (hydroxypropylcellulose) (HPC)
[16] = dose: 400.0 mg/kg/injection, schedule: Q01DX009 (ip), vehicle: saline

Measured: T/C

CN1CC2Cc3ccc(O)cc3C(C)(C2)C1 (configuration not stated)
inactive: dose: 12.5 mg/kg/injection, schedule: Q01DX009 (ip), vehicle: saline 98 % of control | dose: 25.0 mg/kg/injection, schedule: Q01DX009 (ip), vehicle: saline 96 % of control | [1] 87 % of control | [2] 98 % of control

O=C(O)c1cc(-c2ccc(Cl)cc2)nc2c(-c3ccccc3)cccc12
inactive: [1] 91 % of control | [3] 103 % of control | [4] 104 % of control

COC1C(OC2CCC3(C=O)C4CCC5(C)C(C6=CC(=O)OC6)CCC5(O)C4CCC3(O)C2)OC(C)C(O)C1OC (configuration not stated)
inactive: dose: 0.35 mg/kg/injection, schedule: Q01DX009 (ip), vehicle: saline 99 % of control | dose: 0.7 mg/kg/injection, schedule: Q01DX009 (ip), vehicle: saline 100 % of control | dose: 1.4 mg/kg/injection, schedule: Q01DX009 (ip), vehicle: saline 100 % of control | dose: 2.8 mg/kg/injection, schedule: Q01DX009 (ip), vehicle: saline 100 % of control

C=C1[C@@H]2CC[C@@]3([C@@H](C2)[C@@]24CCC[C@@]5(C)CN(CCO)[C@@H]2O[C@@H]3C[C@H]54)[C@@H]1O
inactive: dose: 2.0 mg/kg/injection, schedule: Q01DX009 (ip), vehicle: Klucel (hydroxypropylcellulose) (HPC) 97 % of control | dose: 4.0 mg/kg/injection, schedule: Q01DX009 (ip), vehicle: Klucel (hydroxypropylcellulose) (HPC) 97 % of control | dose: 8.0 mg/kg/injection, schedule: Q01DX009 (ip), vehicle: Klucel (hydroxypropylcellulose) (HPC) 98 % of control | dose: 16.0 mg/kg/injection, schedule: Q01DX009 (ip), vehicle: Klucel (hydroxypropylcellulose) (HPC) 94 % of control

CCOC(=O)C1NC(=O)C(C(=O)OCC)NC1=O (configuration not stated)
inactive: [5] 96 % of control | [6] 92 % of control | [7] 93 % of control

COc1cc(C)c(OC)c(C/C=C(\C)CC2=C(CC(C)(C)O)C(=O)[C@]3(C)CCC[C@]3(C)C2)c1
inactive: dose: 5.0 mg/kg/injection, schedule: Q01DX005 (ip), vehicle: saline with Tween-80 105 % of control | dose: 10.0 mg/kg/injection, schedule: Q01DX005 (ip), vehicle: saline with Tween-80 94 % of control | dose: 20.0 mg/kg/injection, schedule: Q01DX005 (ip), vehicle: saline with Tween-80 94 % of control

CC(=O)Nc1nc(C)c(CCCOc2ccc([N+](=O)[O-])cc2)c(=O)[nH]1
inactive: dose: 60.0 mg/kg/injection, schedule: Q01DX005 (ip), vehicle: Klucel (hydroxypropylcellulose) (HPC) 86 % of control | dose: 120.0 mg/kg/injection, schedule: Q01DX005 (ip), vehicle: Klucel (hydroxypropylcellulose) (HPC) 86 % of control

O=C1SC/C(=N\N=c2/scc(-c3ccc(Br)cc3)n2-c2ccc(Br)cc2)N1Cc1ccccc1
inactive: dose: 100.0 mg/kg/injection, schedule: Q04DX002 (ip), vehicle: Klucel (hydroxypropylcellulose) (HPC) 91 % of control | dose: 200.0 mg/kg/injection, schedule: Q04DX002 (ip), vehicle: Klucel (hydroxypropylcellulose) (HPC) 92 % of control | dose: 400.0 mg/kg/injection, schedule: Q04DX002 (ip), vehicle: Klucel (hydroxypropylcellulose) (HPC) 90 % of control

COC(=O)c1nnn(-c2ccc(S(N)(=O)=O)cc2)c1N
inactive: [8] 98 % of control | [9] 104 % of control | [10] 98 % of control

CC1(C)C2CCC([CH2][Hg][Cl])C1C2 (configuration not stated)
inactive: dose: 2.44 mg/kg/injection, schedule: Q01DX009 (ip), vehicle: saline with Tween-80 100 % of control | dose: 3.66 mg/kg/injection, schedule: Q01DX009 (ip), vehicle: saline with Tween-80 100 % of control | dose: 5.55 mg/kg/injection, schedule: Q01DX009 (ip), vehicle: other 113 % of control | dose: 5.55 mg/kg/injection, schedule: Q01DX009 (ip), vehicle: saline with Tween-80 100 % of control and 91 % of control | dose: 6.25 mg/kg/injection, schedule: Q04DX003 (ip), vehicle: other 105 % of control | dose: 8.33 mg/kg/injection, schedule: Q01DX009 (ip), vehicle: saline with Tween-80 108 % of control and 95 % of control | dose: 12.5 mg/kg/injection, schedule: Q01DX009 (ip), vehicle: other 86 % of control | dose: 12.5 mg/kg/injection, schedule: Q04DX003 (ip), vehicle: other 100 % of control | dose: 25.0 mg/kg/injection, schedule: Q04DX003 (ip), vehicle: other 100 % of control

C#CCOc1ccc(C)cc1
inactive: [11] 108 % of control | [1] 108 % of control | [3] 113 % of control

CC1(C)OC(=O)N(CO)C1=O
inactive: [2] 109 % of control | [12] 119 % of control | [13] 100 % of control

CCN(CC)Cc1c(C)[nH]c2cc(N(C)C)ccc2c1=O
inactive: [14] 96 % of control | [15] 97 % of control

O=C1OC(CO)C(O)C(O)C1O (configuration not stated)
inactive: dose: 50.0 mg/kg/injection, schedule: Q01DX005 (ip), vehicle: saline 100 % of control | dose: 100.0 mg/kg/injection, schedule: Q01DX005 (ip), vehicle: saline 93 % of control | dose: 200.0 mg/kg/injection, schedule: Q01DX005 (ip), vehicle: saline 96 % of control

CCC(=O)OCC1OC(OC2c3cc4c(cc3C(c3cc(OC)c(OC)c(OC)c3)C3C(=O)OCC23)OCO4)C(OC(=O)CC)C(OC(=O)CC)C1OC(=O)CC (configuration not stated)
inactive: dose: 12.5 mg/kg/injection, schedule: Q01DX005 (ip), vehicle: saline with Tween-80 98 % of control | dose: 25.0 mg/kg/injection, schedule: Q01DX005 (ip), vehicle: saline with Tween-80 91 % of control | [5] 88 % of control and 89 % of control

CCOC(=O)c1cc(=O)c2c(OC)ccc(OC)c2[nH]1
inactive: [5] 90 % of control | [6] 98 % of control | [7] 97 % of control

COc1cc(/C=N/n2cnnc2)cc(OC)c1OC
inactive: [12] 100 % of control | [13] 108 % of control | [16] 100 % of control

O=C(O)c1ccc(O)c(O)c1
inactive: [2] 104 % of control and 111 % of control | [12] 100 % of control and 103 % of control | [13] 103 % of control and 98 % of control | [16] 103 % of control and 118 % of control | dose: 600.0 mg/kg/injection, schedule: Q01DX009 (ip), vehicle: saline 100 % of control

O=C1CCSC(=S)N1C(=O)c1ccccc1
inactive: [14] 104 % of control | [15] 104 % of control | dose: 200.0 mg/kg/injection, schedule: Q01DX009 (ip), vehicle: Klucel (hydroxypropylcellulose) (HPC) 109 % of control

C(=C=C(c1ccccc1)c1ccccc1)=C(c1ccccc1)c1ccccc1
inactive: [2] 101 % of control | [12] 93 % of control | [13] 92 % of control

O=[N+]([O-])c1ccc2nnnn2c1
inactive: [2] 100 % of control | [12] 107 % of control | [13] 100 % of control

CN(C)C(=S)OCC1OC(OC2(CO)OC(COC(=S)N(C)C)C(O)C2O)C(O)C(O)C1O (configuration not stated)
inactive: [8] 100 % of control | [9] 103 % of control | [10] 103 % of control

COc1ccccc1C1c2cc3c(cc2OC(C)(OC)C1C)OCO3 (configuration not stated)
inactive: dose: 60.0 mg/kg/injection, schedule: Q01DX005 (ip), vehicle: saline with Tween-80 93 % of control | dose: 120.0 mg/kg/injection, schedule: Q01DX005 (ip), vehicle: saline with Tween-80 90 % of control | dose: 240.0 mg/kg/injection, schedule: Q01DX005 (ip), vehicle: saline with Tween-80 92 % of control

c1c(NC2=NCCO2)cc2c3c1CCCN3CCC2
inactive: dose: 12.5 mg/kg/injection, schedule: Q04DX003 (ip), vehicle: saline with Tween-80 90 % of control | dose: 25.0 mg/kg/injection, schedule: Q04DX003 (ip), vehicle: saline with Tween-80 100 % of control | dose: 50.0 mg/kg/injection, schedule: Q04DX003 (ip), vehicle: saline with Tween-80 109 % of control

CC(=O)NS(=O)(=O)c1ccc(N=NC2C(=O)N(C(=O)c3ccncc3)N=C2C)cc1 (configuration not stated)
inactive: [1] 95 % of control | [3] 97 % of control | [4] 100 % of control

NC(CCS(=O)(=O)NCCCl)C(=O)O (configuration not stated)
inactive: dose: 12.5 mg/kg/injection, schedule: Q01DX009 (ip), vehicle: water 103 % of control | dose: 25.0 mg/kg/injection, schedule: Q01DX009 (ip), vehicle: water 105 % of control | dose: 50.0 mg/kg/injection, schedule: Q01DX009 (ip), vehicle: water 104 % of control | dose: 100.0 mg/kg/injection, schedule: Q01DX009 (ip), vehicle: water 102 % of control | dose: 200.0 mg/kg/injection, schedule: Q01DX009 (ip), vehicle: water 105 % of control

C(=N\N1CCCCCC1)/c1ccc2c(c1)OCO2
inactive: [11] 90 % of control | [1] 95 % of control | [3] 90 % of control
